Measured values from paper PMC11527973, “Efficient characterization of multiple binding sites of small molecule imaging ligands on amyloid-beta, tau and alpha-synuclein” (European Journal of Nuclear Medicine and Molecular Imaging, 2024).

Legend:
[1] = molecular target: T1, pS129-positive αSyn inclusions (Homo sapiens, UniProt P37840); assay: Immunofluorescence staining and colocalization, PD patient brain slices; conditions: for M1, fraction of A overlapping B / M2, fraction of B overlapping A: Manders' coefficient, sample PD, antibody (A) pS129, ligand (B); for Ligand detection of αSyn inclusions: medulla oblongata tissue slices from two PD patients, costained with pS129 antibody
T1 construct: tissue Netherlands Brain Bank; host or cells: postmortem PD brain, medulla oblongata
Excerpt: Two PD patients, each with a clinical diagnosis confirmed by pathological examination of Lewy bodies (Braak LB 6, without tau and Aβ), were included in this study (detailed information in Table 1). Paraffin-embedded autopsied brain tissues from the medulla oblongata and cerebellum with high αSyn inclusion accumulation were obtained from the Netherlands Brain Bank (NBB), Netherlands (Table 2).
The details on the antibodies and ligand concentrations are described in STable 1. 2. Human paraffin-embedded brain sections (3 µm) were deparaffinized and rehydrated prior to antigen retrieval step (citrate buffer pH 6.0) in a microwave for 20 min at 98 °C. The sections were then costained with anti-αSyn (phospho-S129, pS129) antibody plus fluorescent secondary antibody. Ligands were incubated after secondary antibody incubation for 30 min. Sections were counterstained using 4’,6-diamidino-2-phenylindole (DAPI). Mouse brains were embedded in tissue freezing media (OCT Compound, Tissue Tek, USA) and cut into 30–40 μm thick consecutive coronal sections using a cryostat microtome (CM3050 S, Leica, Germany). All sections spanning the complete rostrocaudal extent of the brain were kept in the correct order and stored at 4 °C in cryoprotect solution (1:1:3 volume ratio of ethylenglycol, glycerol and 0.1 M PBS) until further processing. Anti-αSyn pS129 antibodies, anti-phospho-tau antibodies (AT-8, AT-100), or anti-Aβ1-16 antibody 6E10 plus fluorescent secondary antibody were used as previously described on brain slices from αSyn PFF-injected mice, arcAβ mice, and pR5 mice. Ligands were incubated with secondary antibody for 30 min. Sections were counterstained with DAPI. The brain sections were imaged at 20 × magnification using an Axio Observer Z1 microscope (whole brain slide scanner) and at 63 × magnification using a Leica SP8 confocal microscope (Leica, Germany) for colocalization. It took approximately 1–1.5 h to acquire the tilted human brain slices by a slide scanner in our experiment (20 ×). The time varied depending on the size of the sample. Lambda scans were performed using a Leica SP8 confocal microscope for the emission spectrum of the ligands on the staining as previously described to validate the signal. The images were analyzed using Qupath and Fiji (NIH, U.S.A.). Colocalization analysis of the confocal microscopy images (probe and antibody channels) was performed by using Fiji, and Manders' coefficients (M1, M2) were computed.

[2] = molecular target: T2, tau inclusions (AT-8/AT-100 positive) (Homo sapiens, UniProt P10636, P618L); assay: Immunofluorescence staining and colocalization, pR5 mouse brain; conditions: for M1, fraction of A overlapping B / M2, fraction of B overlapping A: Manders' coefficient, pR5 mouse
T2 construct: from tissue; host or cells: brain (cortex, hippocampus) of pR5 transgenic mice
T2 sequence (P10636 1-441 isoform P10636-8 P301L): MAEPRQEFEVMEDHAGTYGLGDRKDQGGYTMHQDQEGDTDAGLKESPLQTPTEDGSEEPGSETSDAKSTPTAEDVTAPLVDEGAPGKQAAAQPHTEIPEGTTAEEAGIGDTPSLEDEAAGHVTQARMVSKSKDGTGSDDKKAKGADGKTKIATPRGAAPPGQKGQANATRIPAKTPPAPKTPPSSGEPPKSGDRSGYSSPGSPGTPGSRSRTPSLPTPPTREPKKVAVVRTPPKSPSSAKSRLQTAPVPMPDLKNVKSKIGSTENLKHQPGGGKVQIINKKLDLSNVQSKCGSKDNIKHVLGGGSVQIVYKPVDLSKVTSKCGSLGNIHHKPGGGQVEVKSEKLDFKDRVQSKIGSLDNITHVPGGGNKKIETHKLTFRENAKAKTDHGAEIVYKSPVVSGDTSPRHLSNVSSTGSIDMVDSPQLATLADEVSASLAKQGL

recombinant αSyn fibrils [3] = molecular target: T3, recombinant αSyn fibrils (Homo sapiens, UniProt P37840); assay: SPR binding kinetics on immobilized αSyn fibrils; conditions: surface CMD200M, surface density 2940-3400 RU, sum2exp model, two components (lines) per analyte; for kon: read-out: ka, rate constant of association
T3 construct: made in house; host or cells: E. coli
Experimental: SPR measurements were conducted in HEPES-buffered saline (HBS, Teknova, USA) buffer at 20 °C using Biacore instruments T200 and S200 (Cytiva, Uppsala, Sweden). Aβ42, tau, and αSyn recombinant fibrils were immobilized in the flow cell of sensor chips produced by Xantec (Düsseldorf, Germany) and Cytiva by coupling fibril amine groups to sulfo-N-hydroxysuccinimide (sulfo-NHS)-activated carboxylic acid groups on the chip surface. Since no nonbinding fibril(s) were available, the reference flow cell remained empty. Different chip surfaces, including the carboxymethylated dextran surface CM5 (Cytiva, Sweden), the carboxymethyldextran hydrogel surface CMD200M, the linear polycarboxylate hydrogel surface HC30M and HC1500M, the linear polycarboxylate hydrogel (reduced charge) surface HLC30M, and the zwitterionic hydrogel surface ZC150D (all from Xantec, Germany), were tested to obtain a high immobilization density and low nonspecific adsorption of ligands. All steps for surface preparation and immobilization were conducted at a flow rate of 5 µL/min. The surface carboxylic acid groups were activated with 0.2 M sulfo-NHS and 0.1 M 1-ethyl-3-(3-dimethylaminopropyl)carbodiimide (EDC, Xantec) (CM5 and CMD200M: 0.05 M) in 5 mM 2-(N-morpholino)ethanesulfonic acid (MES buffer, abcr Swiss AG, Switzerland) at pH 5.0 for 550 s (CM5 and CMD200M: 180 s) using 5 mM MES (pH 6.5) as the running buffer. K18-tau and αSyn fibrils were diluted to 2.5–10 µM in 5 mM acetate buffer (Fisher Scientific, Switzerland) at pH 4.5 and coupled for 750 s at a flow rate of 5 µL/minute on all surfaces except for ZD150D. Surfaces were blocked with 1 M ethanolamine (Xantec, Germany) for 500 s. On the ZC150D chip, K18-tau, αSyn and Aβ42 were immobilized at 2.5–10 µM in 5 mM MES, pH 6.5, for 750 s to a surface activated with 0.5 M EDC and 0.1 M sulfo-NHS for 600 s in 5 mM MES, pH 6.5. Finally, the surface was blocked with 1 M glycine in 10 mM MES, pH 6.5.

recombinant Aβ42 fibrils [4] = molecular target: T4, recombinant Aβ42 fibrils (Homo sapiens, UniProt P05067); design: method as in PMID 27767229; conditions: read-out: EC50, competition with [^3H]X-34; cited from earlier work
T4 construct: Recombinant Aβ42, K18-tau, full-length 2N4R tau (441 aa) and αSyn were expressed; made in house; host or cells: E. coli
T4 sequence (P05067 672-713 limits assumed): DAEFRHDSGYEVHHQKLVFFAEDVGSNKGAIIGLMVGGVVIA

recombinant Aβ42 fibrils [5] = molecular target: T4, recombinant Aβ42 fibrils; assay: Fluorescence assay of ligands with Aβ42 fibrils; format: binding; conditions: ligand bound to Aβ42 fibrils; emission peaks
Excerpt: (§1) Recombinant Aβ42, K18-tau, full-length 2N4R tau (441 aa) and αSyn were expressed and measured for binding with fluorescent ligands as described previously (details in the supplementary material).
(§2) Recombinant Aβ42, K18 tau, full-length 2N4R tau (441 aa) and αSyn were expressed and produced by E. coli as described previously. As a substrate for HRP, Pierce ECL and Western blotting substrate (Thermo Fisher Scientific, U.S.A.) were used to detect Aβ42 and αSyn. To detect K18 tau, ECL Prime Western blotting detection reagents (Cytiva, U.S.A.) were used. Images of the resulting blots were taken with an ImageQuant LAS 4000 (GE Healthcare). […] For Aβ42, the quantity was 3.7 μg because of a higher dilution. […] K18 tau was detected using a monoclonal tau antibody (anti-tau 4-repeat isoform RD4, clone 1E1/A6). Aβ42 was detected with a monoclonal Aβ antibody (clone BAM-10), and αSyn was detected using a monoclonal αSyn antibody (clone Syn211). […] After incubation of the protein solutions, fibrillization was verified by thioflavin T fluorescence assay: 45 μL of thioflavin T (5 μM, Sigma Aldrich, U.S.A.) was mixed with either 2 μL of the incubated αSyn, 5 μL of K18 tau, full-length 2N4R tau or 5 μL of Aβ42 in a 45 µL quartz cuvette (quartz […] Ultra-Micro Cell, Hellma GmbH, Germany).

recombinant αSyn fibrils [6] = molecular target: T3, recombinant αSyn fibrils; assay: Fluorescence assay of ligands with αSYN fibrils; format: binding; conditions: ligand bound to αSYN fibrils; emission peaks
Excerpt: as §1, §2

[7] = molecular target: recombinant K18 tau fibrils (Homo sapiens, UniProt P10636); assay: Fluorescence assay of ligands with K18 tau fibrils; format: binding; design: made in house; host or cells: E. coli; conditions: ligand bound to K18 tau fibrils; emission peaks
recombinant K18 tau fibrils, sequence (P10636 561-685 limits assumed): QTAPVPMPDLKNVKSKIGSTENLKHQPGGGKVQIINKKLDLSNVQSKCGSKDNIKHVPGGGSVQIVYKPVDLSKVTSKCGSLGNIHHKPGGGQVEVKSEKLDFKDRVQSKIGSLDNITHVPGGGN
Excerpt: as §1, §2

[8] = molecular target: T5, pS129-positive αSyn inclusions (Mus musculus, UniProt O55042); assay: Immunofluorescence staining and colocalization, αSyn PFF-injected mouse brain; conditions: for M1, fraction of A overlapping B / M2, fraction of B overlapping A: Manders' coefficient, αSyn PFF injected mouse, antibody (A) pS129, ligand (B); for Colocalization of ligand with pS129 signal: αSyn-PFF-injected mice, 12 weeks after injection, PPN, periaqueductal gray, SNc, nucleus accumbens
T5 construct: from tissue; host or cells: brain of αSyn PFF-injected C57BL/6J mice

[9] = molecular target: T6, recombinant full-length 2N4R tau fibrils (Homo sapiens, UniProt P10636); assay: SPR binding kinetics on immobilized full-length 2N4R tau fibrils; conditions: surface ZC150D, surface density 2900 RU, sum2exp model, two components per analyte
T6 construct: full-length 2N4R tau (441 aa); made in house; host or cells: E. coli
T6 sequence (P10636 1-441 isoform P10636-8): as the sequence (P10636 1-441 isoform P10636-8 P301L) above, with L301P counted along it
Experimental: [The source words this procedure for another variant and reports this variant under the same test.] (§3) SPR measurements were conducted in HEPES-buffered saline (HBS, Teknova, USA) buffer at 20 °C using Biacore instruments T200 and S200 (Cytiva, Uppsala, Sweden). Aβ42, tau, and αSyn recombinant fibrils were immobilized in the flow cell of sensor chips produced by Xantec (Düsseldorf, Germany) and Cytiva by coupling fibril amine groups to sulfo-N-hydroxysuccinimide (sulfo-NHS)-activated carboxylic acid groups on the chip surface. Since no nonbinding fibril(s) were available, the reference flow cell remained empty. […]
(§4) The immobilized fibrils were stable for a few days. Kinetic constants for binding were determined by injection of a dilution series of 5–8 concentrations of ligand in HBS buffer at a flow rate of 30 µL/minute in duplicate ("full kinetics").
(§5) The data was evaluated using BiaEvaluate v2.03 software (Cytiva, Sweden). Binding kinetics were analyzed globally using different kinetic models, including 1 + 1, a sum of two exponentials model ("heterogeneous ligand" in terms of BiaEvaluate, sum2exp), and a sum of three exponentials model (sum3exp) that was created using the script editor of the software.

recombinant Aβ42 fibrils [10] = molecular target: T4, recombinant Aβ42 fibrils; assay: SPR binding kinetics on immobilized Aβ42 fibrils; conditions: surface ZC150D, surface density 1770 RU, sum2exp model, two components per analyte
Experimental: as §3, §4, §5

[11] = antibody (A) AT-100, ligand (B)

Compound | M1, fraction of A overlapping B [1] | M2, fraction of B overlapping A [1] | Ligand detection of αSyn inclusions [1] | M1, fraction of A overlapping B ([2]; antibody (A) AT-8, ligand (B)) | M2, fraction of B overlapping A ([2]; antibody (A) AT-8, ligand (B)) | M1, fraction of A overlapping B [2, 11] | M2, fraction of B overlapping A [2, 11] | ka, rate constant of association (recombinant αSyn fibrils [3]) | kon (recombinant αSyn fibrils [3]) | Emission wavelength (recombinant Aβ42 fibrils [5]) | Emission wavelength (recombinant αSyn fibrils [6]) | Emission wavelength [7] | M1, fraction of A overlapping B [8] | M2, fraction of B overlapping A [8] | Colocalization of ligand with pS129 signal [8] | EC50 (recombinant Aβ42 fibrils [4]) | Ligand detection of tau inclusions ([2]; pR5 mice, cortex and hippocampus, costained with AT-8) | ka, rate constant of association [9] | ka, rate constant of association (recombinant Aβ42 fibrils [10])
CC[n+]1c(/C=C/C=C/c2ccc(N(C)C)cc2)sc2ccccc21 [PBB5] |  |  |  | 0.39 | 0.09 | 0.024 | 0.018 |  |  | 695 nm | 690 nm | 688 nm |  |  |  |  | confirmed the presence of PBB5 in tau inclusions |  | 
Cc1c(OCC(F)(F)F)ccnc1C[S+]([O-])c1nc2ccccc2[nH]1 (stereo not drawn) [Lan, lansoprazole] |  |  |  |  |  |  |  |  |  |  |  |  |  |  |  |  |  | lower than 10^3 M^−1 s^−1 | lower than 10^3 M^−1 s^−1

Second part, led by results:

M1, fraction of A overlapping B [1] | M2, fraction of B overlapping A [1] | Ligand detection of αSyn inclusions [1] | M1, fraction of A overlapping B ([2]; antibody (A) AT-8, ligand (B)) | M2, fraction of B overlapping A ([2]; antibody (A) AT-8, ligand (B)) | M1, fraction of A overlapping B [2, 11] | M2, fraction of B overlapping A [2, 11] | ka, rate constant of association (recombinant αSyn fibrils [3]) | kon (recombinant αSyn fibrils [3]) | Emission wavelength (recombinant Aβ42 fibrils [5]) | Emission wavelength (recombinant αSyn fibrils [6]) | Emission wavelength [7] | M1, fraction of A overlapping B [8] | M2, fraction of B overlapping A [8] | Colocalization of ligand with pS129 signal [8] | Compound | EC50 (recombinant Aβ42 fibrils [4]) | Ligand detection of tau inclusions ([2]; pR5 mice, cortex and hippocampus, costained with AT-8) | ka, rate constant of association [9] | ka, rate constant of association (recombinant Aβ42 fibrils [10])
0.404 | 0.4 | bound to pS129-positive αSyn inclusions | 0.215 | 0.07 | 0.459 | 0.16 | 111000 M⁻¹ s⁻¹ | 162000 M⁻¹ s⁻¹ |  |  |  |  |  |  | O=C(O)Cc1cc(-c2ccc(-c3ccc(C(=O)O)s3)s2)sc1-c1ccc(-c2sc(-c3ccc(-c4ccc(C(=O)O)s4)s3)cc2CC(=O)O)s1 [h-FTAA, Hepta-formylthiophene acetic acid] | ~0.25 µM |  |  | 
0.81 | 0.866 | bound to pS129-positive αSyn inclusions | 0.164 | 0.279 |  |  | 1.45E + 05 M^−1 s^−1 | 288000 M⁻¹ s⁻¹ | 650 nm | 643 nm | 640 nm | 0.673 | 0.84 | Colocalization | O=C(O)Cc1cc(-c2ccc(-c3cc(CC(=O)O)c(-c4ccc(C(=O)O)s4)s3)c3nsnc23)sc1-c1ccc(C(=O)O)s1 [HS-169] |  |  |  | 
 |  |  |  |  |  |  |  |  |  |  |  | 0.839 | 0.838 | Colocalization | O=C(O)Cc1cc(-c2ccc(-c3cc(CC(=O)O)c(-c4ccc(C(=O)O)s4)s3)s2)sc1-c1ccc(C(=O)O)s1 [HS-84] |  |  |  | 
